{
  "source": "patent US20100004289A1",
  "about": "“SUBSTITUTED BUTYROPHENONE DERIVATIVES” (priority 2005, published 2010)",
  "key": {"[1]": {"target": "T1, cloned dopamine human D2Long receptor (Homo sapiens, UniProt P14416)", "T1 construct": "purchased Research Biochemicals International (Natick, Mass.); host or cells: Sf9 cells or CHO cells", "T1 sequence (P14416 whole entry)": "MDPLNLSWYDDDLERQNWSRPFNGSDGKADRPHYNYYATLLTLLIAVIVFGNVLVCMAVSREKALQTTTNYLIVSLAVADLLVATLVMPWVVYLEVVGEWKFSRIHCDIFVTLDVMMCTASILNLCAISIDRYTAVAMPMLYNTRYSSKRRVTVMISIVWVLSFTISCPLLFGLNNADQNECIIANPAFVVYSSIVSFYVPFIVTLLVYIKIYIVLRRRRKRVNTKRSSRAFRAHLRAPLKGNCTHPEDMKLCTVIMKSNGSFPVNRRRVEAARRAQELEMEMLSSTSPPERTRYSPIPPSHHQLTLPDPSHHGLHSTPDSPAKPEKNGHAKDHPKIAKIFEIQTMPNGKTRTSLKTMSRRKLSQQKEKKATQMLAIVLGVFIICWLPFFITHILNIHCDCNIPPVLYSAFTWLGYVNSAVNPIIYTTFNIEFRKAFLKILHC", "assay": "Competitive binding at cloned dopamine D2 receptor ([3H]raclopride)", "details": "2 nM [3H]raclopride, read-out: dissociation constant, K, at D2 receptor", "experimental": "(§1) Human dopamine D1 receptors (in Sf9 cells or COS cells), human dopamine D2Long receptors (in Sf9 cells or CHO cells), human alpha-adrenoceptor-2A receptors, and human muscarinic M1 receptors, all expressed in Sf9 cells, were purchased from Research Biochemicals International (Natick, Mass.). The frozen membranes containing the receptors were directly suspended at approximately 100 μg protein/ml and the cell suspension was homogenized for 5 s (Polytron, setting 5) without any further washing."}, "[2]": {"target": "muscarinic cholinergic receptor (rat cortex tissue)", "assay": "Competitive binding at muscarinic receptor ([3H]QNB)", "details": "read-out: dissociation constant at muscarinic cholinergic receptor"}, "[3]": {"target": "T2, serotonin-1A receptor (rat frontal cortex tissue) (Rattus norvegicus, UniProt P19327)", "T2 construct": "tissue Pel-Freez (Rogers, Ark.); host or cells: rat frontal cerebral cortex", "T2 sequence (P19327 1-422)": "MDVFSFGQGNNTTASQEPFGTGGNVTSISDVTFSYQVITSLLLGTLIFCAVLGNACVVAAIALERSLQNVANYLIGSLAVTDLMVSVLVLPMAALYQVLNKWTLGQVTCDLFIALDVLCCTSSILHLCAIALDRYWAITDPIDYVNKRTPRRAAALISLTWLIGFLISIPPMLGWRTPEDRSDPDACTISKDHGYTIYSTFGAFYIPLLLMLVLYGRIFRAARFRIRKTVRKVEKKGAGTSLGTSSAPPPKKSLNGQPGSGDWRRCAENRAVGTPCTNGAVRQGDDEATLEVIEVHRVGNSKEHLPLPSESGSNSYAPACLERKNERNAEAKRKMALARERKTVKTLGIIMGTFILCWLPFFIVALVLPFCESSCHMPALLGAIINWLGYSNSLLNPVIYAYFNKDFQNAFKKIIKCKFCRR", "assay": "Competitive binding at serotonin-1A receptor ([3H]8-OH-DPAT), rat tissue", "details": "read-out: dissociation constant at serotonin-1A receptor"}, "[4]": {"target": "T3, dopamine D1 receptor (rat striatal tissue) (Rattus norvegicus, UniProt P18901)", "T3 construct": "tissue Pel-Freez (Rogers, Ark.); host or cells: rat brain striatum", "T3 sequence (P18901 whole entry)": "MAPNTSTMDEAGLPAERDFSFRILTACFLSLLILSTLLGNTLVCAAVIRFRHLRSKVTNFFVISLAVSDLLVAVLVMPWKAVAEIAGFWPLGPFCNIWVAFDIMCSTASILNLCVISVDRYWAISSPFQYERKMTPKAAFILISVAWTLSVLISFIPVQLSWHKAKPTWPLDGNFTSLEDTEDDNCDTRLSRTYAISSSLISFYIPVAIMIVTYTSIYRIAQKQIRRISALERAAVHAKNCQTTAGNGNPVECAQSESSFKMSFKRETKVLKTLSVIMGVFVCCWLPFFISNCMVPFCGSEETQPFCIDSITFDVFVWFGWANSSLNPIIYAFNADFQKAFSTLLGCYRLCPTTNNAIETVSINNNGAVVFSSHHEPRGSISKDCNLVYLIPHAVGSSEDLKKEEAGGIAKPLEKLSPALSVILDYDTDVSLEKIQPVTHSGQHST", "assay": "Competitive binding at dopamine D1 receptor ([3H]SCH23390), rat tissue", "details": "read-out: dissociation constant at dopamine D1 receptor"}, "[5]": {"target": "alpha-1-adrenoceptor (rat cortex)", "assay": "Competitive binding at alpha-1-adrenoceptor ([3H]prazosin)", "details": "read-out: dissociation constant at alpha-1-adrenoceptor"}, "[6]": {"target": "T4, alpha-2-adrenoceptor (cloned in Sf9 cells) (Homo sapiens, UniProt P08913)", "T4 construct": "purchased Research Biochemicals International (Natick, Mass.); host or cells: Sf9 cells", "T4 sequence (P08913 1-465)": "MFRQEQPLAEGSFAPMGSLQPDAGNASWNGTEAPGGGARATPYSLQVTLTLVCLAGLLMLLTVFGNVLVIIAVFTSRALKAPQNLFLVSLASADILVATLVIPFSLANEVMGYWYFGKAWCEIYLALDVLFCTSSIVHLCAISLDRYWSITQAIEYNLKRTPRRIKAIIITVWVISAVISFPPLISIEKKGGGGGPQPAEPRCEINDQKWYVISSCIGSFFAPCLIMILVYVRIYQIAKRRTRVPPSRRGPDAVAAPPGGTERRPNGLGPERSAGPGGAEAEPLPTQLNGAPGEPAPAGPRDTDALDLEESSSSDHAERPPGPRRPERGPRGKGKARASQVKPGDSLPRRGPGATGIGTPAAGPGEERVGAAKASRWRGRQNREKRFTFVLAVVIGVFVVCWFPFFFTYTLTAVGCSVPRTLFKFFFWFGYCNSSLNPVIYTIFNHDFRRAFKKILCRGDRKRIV", "assay": "Competitive binding at alpha-2-adrenoceptor ([3H]yohimbine)", "details": "read-out: dissociation constant at alpha-2-adrenoceptor", "experimental": "as §1"}, "[7]": {"target": "T5, histamine H1 receptor (rat cortex) (Rattus norvegicus, UniProt P31390)", "T5 construct": "tissue Pel-Freez (Rogers, Ark.); host or cells: rat cortex", "T5 sequence (P31390 whole entry)": "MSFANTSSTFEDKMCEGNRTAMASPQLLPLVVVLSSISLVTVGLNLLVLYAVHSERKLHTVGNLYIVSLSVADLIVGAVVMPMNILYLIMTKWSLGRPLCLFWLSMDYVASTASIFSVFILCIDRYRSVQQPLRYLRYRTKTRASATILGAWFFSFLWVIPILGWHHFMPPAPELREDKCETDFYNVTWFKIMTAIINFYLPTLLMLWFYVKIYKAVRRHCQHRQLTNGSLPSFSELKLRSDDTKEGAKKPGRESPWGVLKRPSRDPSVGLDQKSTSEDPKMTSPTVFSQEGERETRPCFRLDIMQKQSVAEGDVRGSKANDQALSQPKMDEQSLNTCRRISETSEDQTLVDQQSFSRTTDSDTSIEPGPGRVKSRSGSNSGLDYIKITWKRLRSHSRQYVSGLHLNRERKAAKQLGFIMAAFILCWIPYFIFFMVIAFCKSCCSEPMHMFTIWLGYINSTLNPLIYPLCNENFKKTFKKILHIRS", "assay": "Competitive binding at histamine H1 receptor", "details": "read-out: dissociation constant at histamine H1 receptor"}, "[8]": {"target": "T6, cloned dopamine D2 receptor (Homo sapiens, UniProt P14416)", "T6 construct": "purchased Research Biochemicals International (Natick, Mass.); host or cells: Sf9 cells or CHO cells", "T6 sequence (P14416 whole entry)": "as the sequence (P14416 whole entry) above", "assay": "Dissociation from the cloned dopamine D2 receptor", "type": "binding"}, "[9]": {"target": "T7, dopamine D2 receptors (Rattus norvegicus, UniProt P61169)", "T7 construct": "from tissue; host or cells: striatum of living Sprague-Dawley rats", "T7 sequence (P61169 whole entry)": "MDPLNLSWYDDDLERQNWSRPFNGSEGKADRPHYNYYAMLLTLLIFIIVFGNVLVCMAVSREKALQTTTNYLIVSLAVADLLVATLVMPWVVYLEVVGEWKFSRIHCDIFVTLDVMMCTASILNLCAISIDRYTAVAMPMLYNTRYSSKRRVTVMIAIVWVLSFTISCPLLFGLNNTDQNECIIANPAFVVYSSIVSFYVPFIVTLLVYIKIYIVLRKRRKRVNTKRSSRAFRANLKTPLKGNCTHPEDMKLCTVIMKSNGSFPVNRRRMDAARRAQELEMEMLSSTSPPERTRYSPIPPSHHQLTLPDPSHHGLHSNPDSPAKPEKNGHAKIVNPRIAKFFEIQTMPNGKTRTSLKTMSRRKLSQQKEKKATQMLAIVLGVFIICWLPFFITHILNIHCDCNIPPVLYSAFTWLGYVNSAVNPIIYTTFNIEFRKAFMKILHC", "assay": "In vivo D2 occupancy ([3H]raclopride, striatum)", "details": "for receptor occupancy at 20 mg/kg: po, oral 20 mg/kg, rats", "experimental": "Sprague-Dawley rats (each 250 g) received an oral dose of test compound of 20 mg/kg by gavage, using 2 ml per gavage feeding. The test compound solution was prepared as follows: 20 mg of test compound was added to 8 ml saline (0.9% NaCl), followed by the addition of a few drops of 2% lactic acid and back titration of the suspension to pH 5 using 0.1 N NaOH. A fine particulate suspension was used for gavage. Each rat received 2 ml of the suspension over a period of 5 minutes. […] The D2 occupancy in the striatum was calculated."}, "[10]": {"test_system": "catalepsy", "assay": "Catalepsy (horizontal bar)", "type": "in vivo", "details": "up to 60 mg/kg in mice", "description": "The front paws of the animal were placed on a horizontal bar. Control animals quickly moved off the bar. Cataleptic animals held on to the bar for up to 15 seconds or more."}, "[11]": {"target": "sigma receptor (rat striatal tissue) (Rattus norvegicus, UniProt Q9R0C9)", "sequence (Q9R0C9 whole entry)": "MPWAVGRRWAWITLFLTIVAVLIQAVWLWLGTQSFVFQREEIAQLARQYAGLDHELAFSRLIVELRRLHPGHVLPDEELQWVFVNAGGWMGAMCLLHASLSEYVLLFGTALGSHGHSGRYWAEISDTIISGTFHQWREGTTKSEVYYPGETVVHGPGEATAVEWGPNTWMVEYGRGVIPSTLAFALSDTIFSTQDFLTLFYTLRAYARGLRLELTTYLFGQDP", "assay": "biochemical"}, "[12]": {"target": "T8, HERG channel receptor (Rattus norvegicus, UniProt O08962)", "T8 sequence (O08962 1-1163)": "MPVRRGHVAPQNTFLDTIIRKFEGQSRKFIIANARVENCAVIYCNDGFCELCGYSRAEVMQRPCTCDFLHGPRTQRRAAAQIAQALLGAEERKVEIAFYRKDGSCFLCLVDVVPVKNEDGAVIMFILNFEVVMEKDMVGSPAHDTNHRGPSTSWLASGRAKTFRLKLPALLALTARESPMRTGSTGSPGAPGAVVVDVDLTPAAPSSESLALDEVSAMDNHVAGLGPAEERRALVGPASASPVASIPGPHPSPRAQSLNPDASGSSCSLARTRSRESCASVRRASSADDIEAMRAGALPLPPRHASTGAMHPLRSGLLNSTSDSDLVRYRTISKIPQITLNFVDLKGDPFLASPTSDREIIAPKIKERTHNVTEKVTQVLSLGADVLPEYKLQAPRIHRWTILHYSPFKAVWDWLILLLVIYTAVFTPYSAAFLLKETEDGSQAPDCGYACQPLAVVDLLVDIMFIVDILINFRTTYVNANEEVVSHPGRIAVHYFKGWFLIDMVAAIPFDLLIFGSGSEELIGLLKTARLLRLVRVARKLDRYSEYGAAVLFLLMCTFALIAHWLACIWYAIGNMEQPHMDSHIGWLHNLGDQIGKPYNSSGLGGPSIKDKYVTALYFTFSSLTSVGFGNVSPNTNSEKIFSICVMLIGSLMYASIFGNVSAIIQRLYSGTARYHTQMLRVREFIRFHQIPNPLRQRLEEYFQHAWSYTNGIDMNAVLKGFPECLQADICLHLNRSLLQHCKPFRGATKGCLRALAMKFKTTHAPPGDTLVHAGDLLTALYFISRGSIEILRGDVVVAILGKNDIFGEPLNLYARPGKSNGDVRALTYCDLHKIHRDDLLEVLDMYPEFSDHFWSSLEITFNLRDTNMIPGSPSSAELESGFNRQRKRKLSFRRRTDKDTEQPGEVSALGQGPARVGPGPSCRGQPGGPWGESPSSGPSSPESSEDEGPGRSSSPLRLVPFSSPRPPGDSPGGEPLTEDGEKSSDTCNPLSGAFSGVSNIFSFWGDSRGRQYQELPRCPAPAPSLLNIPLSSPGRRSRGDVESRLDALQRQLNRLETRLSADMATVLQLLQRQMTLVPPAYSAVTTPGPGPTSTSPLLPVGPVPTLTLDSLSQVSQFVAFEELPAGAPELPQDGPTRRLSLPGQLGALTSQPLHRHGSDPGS", "assay": "Competitive binding at HERG channel ([3H]dofetilide)"}, "[13]": {"target": "rat brain or human brain dopamine D2 receptor", "details": "read-out: affinity (dissociation constant) of dopamine at the high-affinity state of D2; cited from earlier work"}},
  "note": "Values joined by “and” are separate entries in the source; they are usually repeats but may differ in a detail not shown here. Equal values may be shown once.",
  "data": [
    {"smiles": "COc1cccc(C(=O)CCCN2CCC(O)(c3ccc(Cl)cc3)CC2)c1", "note": "[Example 2(a), 4-[4-(4-chlorophenyl)-4-hydroxypiperidin-1-yl]-1-(3-methoxyphenyl)butan-1-one]", "values": [
      {"measurement": "Ki", "setting": "[1]", "value": "140 ± 8", "unit": "nM"},
      {"measurement": "Ki", "setting": "[2]", "value": 570, "unit": "nM"},
      {"measurement": "Ki", "setting": "[3]", "value": 12000, "unit": "nM"},
      {"measurement": "Ki", "setting": "[4]", "value": 11000, "unit": "nM"},
      {"measurement": "Ki", "setting": "[5]", "value": 1070, "unit": "nM"},
      {"measurement": "Ki", "setting": "[6]", "value": 9500, "unit": "nM"},
      {"measurement": "Ki", "setting": "[7]", "value": 1140, "unit": "nM"},
      {"measurement": "time at which dissociation from cloned D2 receptor was 50% completed", "setting": "[8]", "value": 23, "unit": "s"},
      {"measurement": "receptor occupancy at 20 mg/kg", "setting": "[9]; 30 min", "value": 39, "unit": "%"},
      {"measurement": "receptor occupancy at 20 mg/kg", "setting": "[9]; 1 hour", "value": 63, "unit": "%"},
      {"measurement": "receptor occupancy at 20 mg/kg", "setting": "[9]; 2 hour", "value": 24, "unit": "%"},
      {"measurement": "receptor occupancy at 20 mg/kg", "setting": "[9]; 3 hour", "value": 28, "unit": "%"},
      {"measurement": "receptor occupancy at 10 mg/kg", "setting": "[9]; sc, 10 mg/kg subcutaneous, after one hour, Sprague Dawley rats", "value": 61, "unit": "%"},
      {"measurement": "catalepsy", "setting": "[10]", "value": "did not result in any catalepsy"},
      {"measurement": "melting point", "value": "127 to 129", "unit": "°C"},
      {"measurement": "Ki", "setting": "[11]", "value": 200, "unit": "nM"},
      {"measurement": "Ki", "setting": "[12]", "value": 2600, "unit": "nM"}
    ]},
    {"smiles": "COc1cccc(C(=O)CCCN2CCC(O)(c3ccccc3)CC2)c1", "note": "[Example 2(b), 4-[4-phenyl-4-hydroxypiperidin-1-yl]-1-(3-methoxyphenyl)butan-1-one, reference compound]", "values": [
      {"measurement": "Ki", "setting": "[1]", "value": 660, "unit": "nM"}
    ]},
    {"smiles": "NCCc1ccc(O)c(O)c1", "note": "[dopamine]", "values": [
      {"measurement": "Kd", "setting": "[13]", "value": "~1.75 nM and 1.75 nM"}
    ]}
  ]
}
